Assay results: patent US12458650B2, “Urination disorder-improving agent” (ASKA Pharmaceutical Co., Ltd., priority 2019, dated 2025)

Key:
[1] = test system: lower urinary tract obstruction model of rats; experiment: Test Example 1: urination function in female rat lower urinary tract obstruction model (cystometry, tissue wet weights, survival); format: in vivo; details: Group A: 10 mg/kg oral once a day, 2 weeks
Description: A lower urinary tract obstruction model of rats was used as a test system. A test substance was orally administered to the lower urinary tract obstruction model repeatedly over two (2) weeks to examine the action on the urination function in the lower urinary tract obstruction model.
More specifically, the rats (female, Crl:CD(SD), 8-week-old; Charles River Laboratories Japan, Inc.) were operated to form lower urinary tract obstruction and repeatedly received oral administration of the test substance at a frequency of once a day over two (2) weeks. After the completion of the administration, each rat was subjected to bladder catheterization under anesthesia, cystometry under no anesthesia, then cystometry under urethane anesthesia, and euthanasia under deep anesthesia, and the tissues (bladder, kidney) of the rat were extracted or surgically removed. As a normal group, the rats without operation for forming lower urinary tract obstruction were used.
The test system, the test substances, and the dosage are as follows. • Normal group: 0.5 v/v. Polysorbate 80 solution, 10 mL/kg (n=6) • Solvent group (control group): 0.5 v/v % Polysorbate 80 solution, 10 mL/kg (n=15) • Group A: Compound A, 10 mg/kg (n=15) • Group B3: Compound B, 3 mg/kg (n=7) • Group B10: Compound B, 10 mg/kg (n=7)
The residual urine volume, the urination efficiency, and the bladder capacity were measured as follows.
After urination, the residual urine was aspirated from the outlet end of the catheter placed in the bladder to measure the volume (mL) of the residual urine.
After urination, the weight of the voided urine was measured to determine the voided volume (g=mL), and then the urination efficiency was calculated by the following equation: Urination efficiency (%)=[(Voided volume (mL))/(Voided volume (mL)+Residual urine volume (mL))]×100 [Bladder Capacity]
The bladder capacity was calculated from the voided volume and the residual urine volume by the following equation: Bladder capacity(mL)=Voided volume (mL)+Residual urine volume (mL)
Moreover, the wet weight of the extracted bladder and that of the extracted kidney were measured.

[2] = test system: uterine weight associated with rat deciduoma formation; experiment: Test Example 5: antiprogesterone activity, uterine weight associated with rat deciduoma formation in ovariectomized rats; format: in vivo; details: 192 h, 8 days, read-out: inhibition rate of uterine weight increase (antiprogesterone action)
Protocol: For the compound A and the compound D (mifepristone), the antiprogesterone activity was measured. Specifically, a sex hormone and a test substance were repeatedly administered to ovariectomized rats as a test system to examine the antiprogesterone action (antiprogesterone activity) based on, as an index, the fluctuation of the uterine weight (the inhibitory action relative to the increase of the weight) associated with rat deciduoma formation.
More specifically, rats (female, Crl:CD(SD), 5-week-old: Charles River Laboratories Japan, Inc.) were subjected to ovariectomy, and from one (1) week after the ovariectomy, a high dose estrone or 5 μg/one animal was hypodermically administered to the rats once a day for three (3) days. From the day after one day rest period, the rats received, once a day over eight (8) days, hypodermic administration of a low dose estrone (1 μg/one animal), intramuscular administration of progesterone (6 mg/kg), and oral administration of a test substance. In the middle of the administration, on Day 4 of the start of administration, the rats were subjected to a stimulation treatment of decidualization reaction to the right uterus. The day after the final administration, the uterine weight (right uterine body) was measured (n=6). Group E was subjected to ovariectomy and a stimulation treatment of decidualization reaction but was not subjected to a hormone treatment.
The test substances and the dosage in the test system (ovariectomized rats) are as follows. • Group E: rats with ovariectomy without hormone treatment • 0.5 v/v % Polysorbate 80 solution, 10 mL/kg (n=6) • Solvent group (control group): 0.5 v/v % Polysorbate 80 solution, 10 mL/kg (n=6) • Group A3: Compound A, 3 mg/kg (n=6) • Group A10: Compound A, 10 mg/kg (n=6) • Group A30: Compound A, 30 mg/kg (n=6) • Group D: Compound D (mifepristone), 3 mg/kg (n=6)

bladder specimen = experiment: Test Example 3: isometric contraction test of bladder specimen from high-week-old male rats after repeated oral dosing; format: in vivo, rat; details: Group A: 10 mg/kg oral once a day, 2 weeks; compared with Group C (dutasteride 0.3 mg/kg); FIG. 9, 10
Description: High-week-old male rats (22-week-old; Charles River Laboratories Japan, Inc.) were examined and evaluated for the relationship between the test substances and the bladder and urethra contraction reaction. Since the rats are high-week-old, the rats are a model in which the prostate is predicted to be enlarged.
A test substance was orally administered to the high-week-old male rats repeatedly at a frequency of once a day over two (2) weeks, and then, from each rat, a bladder specimen was extracted. The bladder specimen was suspended at a resting tension of about 9.8 mN in a constant-temperature Magnus tube (37° C.) filled with a physiological salt solution aerated with 95% O2-5% CO2 gas and was subjected to an isometric contraction test by applying a square-wave electrical field stimulation (EFS, Amplitude; 0.3 ms, Frequency; 1, 2, 5, 10, 20 Hz, Duration; 5 s); or Carbachol (CCH, 100 nmol/L to 100 μmol/L) and KCl (40, 80 mmol/L).
Solvent group (control group): 0.5 v/v % Polysorbate 80 solution, 10 mL/kg (n=6) • Group A: Compound A, 10 mg/kg (n=6) • Group C: Compound C (dutasteride), 0.3 mg/kg (n=6)

CC(=O)O[C@]1(C(C)=O)C[C@@H](O)[C@H]2[C@@H]3C=C(Cl)C4=CC(=O)OC[C@]4(C)[C@H]3CC[C@@]21C [Compound A, 17α-acetoxy-6-chloro-15β-hydroxy-2-oxa-4,6-pregnadiene-3,20-dione]
bladder wet weight ([1]; FIG. 4): significantly inhibiting the increase
kidney wet weight ([1]; FIG. 5): significantly inhibiting the increase
survival rate ([1]; FIG. 6): no decrease
residual urine volume ([1]; vs control (solvent) group, FIG. 1): significantly decreased
urination efficiency ([1]; vs control group, FIG. 2): increased
bladder capacity ([1]; vs control group, FIG. 3): significantly decreased
inhibition at 3 mg/kg ([2]; Group A3: 3 mg/kg oral once a day, not significant): 15%
inhibition at 10 mg/kg ([2]; Group A10: 10 mg/kg oral once a day, significant): 63%
inhibition at 30 mg/kg ([2]; Group A30: 30 mg/kg oral once a day, significant): 83.3%
bladder contraction tension caused by square-wave electrical field stimulation or Carbachol and KCl (bladder specimen): significantly strong or has a strong directionality
